Results published in patent US11434490B2, “Fluorogen-binding RNA aptamers” (CENTRE NATIONAL DE LA RECHERCHE SCIENTIFIQUE, priority 2017, dated 2022).

Columns and labels:
HEK293T cells = test: Cellular imaging of transfected Mango tagged RNAs; format: cell-based; conditions: fixed cells
Description: HEK293T cells were grown in Dulbecco Modified Eagle's Medium containing 10% Fetal Bovine Serum, 2 mM D-Glucose, 2 mM L-Glutamine, 1 mM Sodium Pyruvate and 100 U/ml Penicillin/Streptomycin (Thermo Fisher) and maintained at 37° C. with 5% CO2 in a humidified incubator. Cells used for imaging were cultured in Ibidi glass bottomed 8-well chamber slides (Ibidi GmbH).
RNA was transfected directly into 8-well chamber slides using the Lipofectamine-based CRISPRMAX reagent following the manufacturers guidelines (Invitrogen). Initially 125 nM RNA containing 10 mM Sodium Phosphate buffer (pH 7.2), 100 mM KCl and 1 mM MgCl2 was incubated at room temperature followed by a 1:1 dilution in OptiMEM prior to transfection. The RNA transfected was incubated at 37° C. for 1 hour in complete growth medium.
Cells were fixed in PBS containing 4% paraformaldehyde for 10 min on ice (Thermo Fisher) followed by permeabilization in 0.2% Triton X-100 for 10 min at room temperature. Cells were first blocked (2% BSA in PBS) for 30 min followed by primary antibody (1:50-1:500 dilutions) incubation for 120 min in blocking solution.
Primary antibodies used here were: Anti-Ribosomal Protein S6 (MAB5436, R&D Systems), Anti-ATP5B (ab14730, Abcam), Anti-GW182 (ab7052, Abcam), Anti-EEA-1 (ab70521, Abcam), Anti-LSm3 (NBP2-14206, Novus Biologicals), Anti-TIAR (sc-398372, Santa Cruz). Secondary antibodies used were Donkey Anti-mouse and Donkey Anti-Rabbit Alexa Fluor 680 (Molecular Probes). Primary antibodies were washed three times for 20 min each in blocking solution followed by incubation with secondary antibody at 1:500 dilution for 60 min, which was subsequently washed as above.
To visualize the nuclear boundary in live cells, a plasmid expressing a fluorescently tagged histone protein (EBFP2-H2B-6, Addgene plasmid 55243) was transfected using FuGene 6 (Promega) 24 h prior to RNA transfection. […] Following incubation of the RNA transfection, the cells were washed once with PBS and replaced with live-cell imaging media (Fluorobrite DMEM supplemented with 20 mM HEPES, Invitrogen). Live and fixed cell images were taken using a Zeiss Elyra wide-field microscope by exciting at 405 nm (Blue), 488 nm (Green) and 642 nm (Far-Red) and detecting at 420-480 nm, 495-550 nm and >650 nm, respectively. Live cells were maintained at 37° C. with 5% CO2 in a stage top incubator (Tokai Hit). Images were processed using FIJI and spot detection analysis was performed on each maximum projection by the spot detector plugin in the ICY image analysis software, which detects significant foci with a pixel area 3×3 pixels.

[1] = cited from earlier work
[2] = Fluorescence titration, binding affinity for TO1-Biotin; conditions: for Kd: ligand TO1-B (TO1-Biotin)
Text: (§1) FIG. 2|RNA Mango I, II, III and IV core sequences and their properties. (a) Color coded alignment of RNA Mango I, II, III and IV. G residues in yellow are protected from DMS cleavage (data from panel d) when folded in the presence of fluorophore. Quadruplex stacks and their associated propeller sequences are numbered 1 through 4. The GAAA isolation motif of Mango I, together with two adenines essential for binding, are shown in green and red respectively. Purple shading represents a flanking stem region common for all four Mango aptamers. Schematic: A tertiary structure schematic of Mango I, showing tier 1, 2 and 3 of its quadruplex structure (T1, T2 and T3) and color-coded as in (a). […] Bottom: Top view of the Mango I core (PBD ID: 5V3F), showing the T3 tier of the quadruplex and relevant propeller residues, color coding matches the schematic and panel a. […] KD values are shown next to each titration. (c) Same as for panel b but using 20 nM TO3-Biotin. Data for panels b and c have been normalized such that Mango I has a maximum fluorescence of 1. Error bars are standard deviation of three replicates. (d) DMS chemical protection patterns for the four Mango aptamers. 3′ end-labelled RNA (terminal ^32pCp shown as a black asterisk) was subjected to DMS chemical modification followed by reduction by NaBH4 and aniline cleavage as described in the methods. […] Legend: T1—denatured T1 ladder; OH—partial alkaline hydrolysis ladder; (−) DMS—denatured reaction with ddH2O added in place of DMS; 80° C.
(§2) Fluorescence data was gathered using a Varian Cary Eclipse Spectrophotometer unless otherwise stated. […] Fluorescence was measured at the maximum excitation and emission wavelengths of each complex (FIG. 13).
Where F([RNA]) is the fluorescence as a function of RNA concentration [RNA], Fmax is the maximal fluorescence of the bound complex and Funbound the fluorescence of the unbound fluorophore. When the fluorescence of Funbound was undetectable, it was set to zero.
(§3) Fluorescence readings were recorded using a Varian Cary Eclipse Spectrophotometer set to measure at the maximum excitation and emission wavelengths of the Mango II aptamer dye complex. Fluorescence titrations were performed in Mango selection buffer (WB: 140 mM KCl, 1 mM MgCl2, 10 mM NaH2PO4 pH 7.2, 0.05% Tween-20).

[3] = Fluorescence enhancement of TO1-Biotin; format: biochemical; conditions: ligand TO1-B; calculated relative to wt from the binding titration
Description: (§4) The bandwidth for all measurements was 1.5 nm for all experiments. Measurements were performed in a 0.2 cm path length cuvette in a background of 20 mM MOPS pH 7.0, 150 mM KCl, 10 μM EDTA. Fluorescence readings were taken in the absence of RNA at a ligand concentration of 0.82 μM. A concentrated, annealed stock of RNA was then added to the cuvette resulting in a final concentration of 2 μM RNA and allowed to equilibrate for 1 minute prior to taking an emission reading. Fluorescence enhancement was determined by dividing the fluorescence signal of ligand in the presence of RNA by the fluorescence signal in the absence of RNA corrected for the background of the instrument.

[4] = Fluorescence titration, binding affinity for TO3-Biotin; conditions: ligand TO3-B (TO3-Biotin)
Text: as §1, §2
Or to the following equation for TO3-Biotin and NMM experiments: F([RNA])=Fmax[RNA]/(KD+[RNA])+Funbound (Eq. 2) Fmax was determined using Eq. 1 or Eq. 2 as appropriate. Temperature Dependent Fluorescence and UV Melting Curves
as §3

[5] = Fluorescence enhancement of TO3-Biotin; format: biochemical; conditions: ligand TO3-B; calculated relative to wt from the binding titration
Description: as §4

[6] = Salt dependence of Mango/TO1-Biotin fluorescence: K+ titration; format: binding; conditions: 25 nM RNA, 50 nM TO1-Biotin, 10 mM Tris pH 7.2
Description: (§5) FIG. 10|Salt dependence of new Mango variants. Dependence of fluorescence of each Mango for (a) K^+, (b) Na^+ in place of K^+, and (c) Mg^2+ ions in a buffer containing 140 mM K^+. […] 10 mM Tris buffer (pH 7.2) was used in place of phosphate of the WB buffer to avoid monovalent counter ions. Color-coding is as follows: Black—Mango I, Blue—Mango II, Green—Mango III, Orange—Mango IV. Hill coefficients are fitted to dark points. Points in lighter shade have been excluded from the fit. Error bars are standard deviations of three replicates.

[7] = Salt dependence of Mango/TO1-Biotin fluorescence: Na+ in place of K+; format: binding
Description: as §5

[8] = Salt dependence of Mango/TO1-Biotin fluorescence: Mg2+ titration; conditions: in the presence of potassium; Mg2+ 256 mM
Description: as §5

[9] = Brightness and photophysics of Mango fluorophore complexes; format: physicochemical
Text: as §1
FIG. 13|Photophysics: excitation/emission. (a) Excitation (dark curve) and emission (light curve) spectra of each Mango. All Mangos have Δex max=510 nm and Δem max=535 nm. Color-coding is as follows: Black—Mango I, Blue—Mango II, Green—Mango III, Red—Mango IV.
as §2

[10] = Formaldehyde resistance assay; format: physicochemical; conditions: in vitro, TO1-Biotin
Description: FIG. 15|Effect of formaldehyde on Mango fluorescence. […] In (b) RNA is incubated with the corresponding amounts of formaldehyde first for one hour, then TO1-Biotin is added. Data for each panel is normalized to RFU at the 0% formaldehyde, 0 min point.
RNA Mango aptamers were incubated with TO1-Biotin in WB buffer for at least one hour until equilibrium fluorescence was reached. […] Fluorescence was measured as a kinetic run at a rate of 2 readings per minute using a Varian Cary Eclipse Fluorescence Spectrophotometer, ex/em=510±2.5/535±5 nm.

[11] = Photobleaching under constant illumination; conditions: identical illumination conditions, on average
Description: FIG. 16|Formation of 5S-Mango foci and their dynamics in live cells. (a) 5S-Mango IV imaged post cell fixation at 5, 15, 30 and 60 mins after transfection using Lipofectamine based CRISPRMAX transfection reagent. […] (c) Root mean-squared displacement (RMSD) of three observed foci with different diffusive behaviors, fast (Green), slow (Blue) and static (Red) shown in Video 3. Scale bars are 10 μm and arrows indicate foci of interest. (d) Normalized photobleaching traces of 5S-F30-Mango I and IV compared to 5S-F30-dBroccoli under constant illumination with an exposure time of 200 ms. Photobleaching half-lives are stated in the table adjacent and were calculated from an exponential fit of each curve.

## 5S-F30-Mango IV: 5S rRNA tagged with Mango IV in F30 scaffold; SEQ ID NO: 6894
HEK293T cells
  foci formation after transfection: consistently exhibit visible foci
  fraction of foci that are clearly nuclear: ~5%
  fraction of foci that are cytoplasmic: ~85%
HEK293T cells; 200 nM TO1-Biotin
  mean intensity of foci against 5S-F30-Control background: two to three-fold higher

## CN1C(=Cc2cc[n+](C)c3ccccc23)Sc2ccccc21 [TO1, Thiazole Orange]
[1]; aqueous solution
  fluorescence quantum yield ϕ: 2×10^−4
[1]
  intracellular half-life: short intracellular half-life
  membrane permeability: plasma and nuclear membrane permeability
[1]; inserted into double-stranded helical nucleic acids
  fluorescence quantum yield: 0.11

## Mango II - A12U: Mango-II point mutant; SEQ ID NO: 6908 (GGCACGUACGAAGGUGAGGAGAGGAAGAGGAGAGUACGUGC; chemistry not given here)
[2]
  Kd: 0.4 ± 0.07 nM
[3]
  FIE (fluorescence enhancement) †: 1342 †

## Mango II - A15U A20U A25U A26U A31U: Mango-II five-fold mutant; SEQ ID NO: 6910 (GGCACGUACGAAGGUGAGGUGAGGUUGAGGUGAGUACGUGC; chemistry not given here)
[2]
  Kd: 1.92 ± 0.39 nM
[3]
  FIE (fluorescence enhancement) †: 1133 †

## Mango II - A15U A20U A25U: Mango-II triple mutant; SEQ ID NO: 6911 (GGCACGUACGAAGGUGAGGUGAGGUAGAGGAGAGUACGUGC; chemistry not given here)
[2]
  Kd: 0.76 ± 0.24 nM
[3]
  FIE (fluorescence enhancement) †: 1329 †

## Mango II - A17U: Mango-II point mutant; SEQ ID NO: 6909 (GGCACGUACGAAGGAGAGGUGAGGAAGAGGAGAGUACGUGC; chemistry not given here)
[2]
  Kd: 1 ± 0.16 nM
[3]
  FIE (fluorescence enhancement) †: 1237 †

## Mango II - A22C: Mango-II point mutant; SEQ ID NO: 6906 (GGCACGUACGAAGGAGAGGAGAGGCAGAGGAGAGUACGUGC; chemistry not given here)
[2]
  Kd: 0.9 ± 0.2 nM
[4]
  Kd: 5.1 ± 1.4 nM
[3]
  FIE (fluorescence enhancement) †: 1407 †
[5]
  FIE (fluorescence enhancement) †: 37 †

## Mango II - A22G: Mango-II point mutant; SEQ ID NO: 6907 (GGCACGUACGAAGGAGAGGAGAGGGAGAGGAGAGUACGUGC; chemistry not given here)
[2]
  Kd: 6.4 ± 1.5 nM
[4]
  Kd: 7.6 ± 3.7 nM
[3]
  FIE (fluorescence enhancement) †: 1224 †
[5]
  FIE (fluorescence enhancement) †: 52 †

## Mango-IV: minimal construct engineered from isolate R5-NMM-5
[2]
  TO1-Biotin binding affinity (in words): slightly weaker affinities than Mango-I
[2]; Mango-IV sequence variant against Mango-IV
  decrease in binding affinity on replacing CGA with GAA: four-fold
[6]
  Kd: 64 ± 24 mM
[6]; * estimated from initial rise of fluorescence
  Hill Coefficients K^+: 1.5 ± 0.2*
[7]
  fluorescence in the presence of sodium ions: limited fluorescence response
[8]
  effect of high levels of Mg^2+ on fluorescence: significantly resistant
[9]; TO1-Biotin complex
  brightness of the TO1-Biotin bound complex: 32,000 M^−1cm^−1
[9]; TO1-Biotin, FIG. 2b
  brighter than Mango-I: 3 fold
[10]
  resistance to formaldehyde: substantially resistant to formaldehyde
[11]
  bleaching half-lives longer than RNA Spinach: 10 times
